Measurements as given in ChEMBL document CHEMBL4811250, “Discovery and Optimization of 2H-1λ2-Pyridin-2-one Inhibitors of Mutant Isocitrate Dehydrogenase 1 for the Treatment of Cancer” (J Med Chem, 2021).

Tests used:
[1] = target: Isocitrate dehydrogenase [NADP] cytoplasmic (Homo sapiens, UniProt O75874, R132H); assay: Inhibition of IDH1 R132H mutant (unknown origin) assessed as reduction in NADPH consumption using alpha-KG as substrate incubated for 5 mins by diaphorase/resazurin-coupled system
[2] = target: Isocitrate dehydrogenase [NADP] cytoplasmic (Homo sapiens, UniProt O75874, R132C); assay: Inhibition of IDH1 R132C mutant (unknown origin) assessed as reduction in NADPH consumption using alpha-KG as substrate incubated for 5 mins by diaphorase/resazurin-coupled system
[3] = system: Isocitrate dehydrogenase [NADP] cytoplasmic (Homo sapiens), O75874 [R132H]; assay: Inhibition of IDH1 R132H mutant (unknown origin) assessed as reduction in NADPH consumption using alpha-KG as substrate at 38 uM incubated for 5 mins by diaphorase/resazurin-coupled system relative to control
[4] = system: Isocitrate dehydrogenase [NADP] cytoplasmic (Homo sapiens), O75874 [R132C]; assay: Inhibition of IDH1 R132C mutant (unknown origin) assessed as reduction in NADPH consumption using alpha-KG as substrate at 38 uM incubated for 5 mins by diaphorase/resazurin-coupled system relative to control
Isocitrate dehydrogenase [NADP] cytoplasmic (Homo sapiens), O75874 [R132C], sequence (O75874 whole entry R132C): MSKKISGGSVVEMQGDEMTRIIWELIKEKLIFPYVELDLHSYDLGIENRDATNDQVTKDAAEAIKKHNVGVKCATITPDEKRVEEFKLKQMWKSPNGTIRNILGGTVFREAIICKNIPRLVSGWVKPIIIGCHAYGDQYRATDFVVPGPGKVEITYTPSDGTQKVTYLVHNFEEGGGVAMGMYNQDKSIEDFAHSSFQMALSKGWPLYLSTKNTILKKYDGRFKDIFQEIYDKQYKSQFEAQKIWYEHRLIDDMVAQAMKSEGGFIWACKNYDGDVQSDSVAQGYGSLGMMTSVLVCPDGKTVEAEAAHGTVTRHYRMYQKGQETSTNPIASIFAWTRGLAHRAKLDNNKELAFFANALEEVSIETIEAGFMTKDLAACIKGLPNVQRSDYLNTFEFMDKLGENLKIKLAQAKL

Isocitrate dehydrogenase [NADP] cytoplasmic (Homo sapiens, UniProt O75874, R132H), sequence (O75874 2-414 R132H limits assumed): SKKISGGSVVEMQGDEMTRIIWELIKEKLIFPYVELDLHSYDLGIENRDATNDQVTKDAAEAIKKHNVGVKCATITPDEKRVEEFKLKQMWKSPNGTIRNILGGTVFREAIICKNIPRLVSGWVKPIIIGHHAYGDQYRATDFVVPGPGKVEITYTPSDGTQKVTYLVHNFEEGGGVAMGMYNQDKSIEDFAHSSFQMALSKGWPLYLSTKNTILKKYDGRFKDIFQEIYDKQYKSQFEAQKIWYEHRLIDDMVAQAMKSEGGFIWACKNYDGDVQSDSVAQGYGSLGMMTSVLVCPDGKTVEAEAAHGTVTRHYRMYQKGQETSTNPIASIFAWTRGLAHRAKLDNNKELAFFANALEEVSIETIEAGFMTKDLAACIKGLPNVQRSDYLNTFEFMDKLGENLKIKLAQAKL
Isocitrate dehydrogenase [NADP] cytoplasmic (Homo sapiens), O75874 [R132H], sequence (O75874 whole entry R132H): as the sequence (O75874 whole entry R132C) above, with C132H counted along it
Isocitrate dehydrogenase [NADP] cytoplasmic (Homo sapiens, UniProt O75874, R132C), sequence (O75874 2-414 R132C limits assumed): as the sequence (O75874 2-414 R132H limits assumed) above, with H131C counted along it

SMILES	IC50 [1] [nM]	IC50 [2] [nM]	inhibition [3] [%]	inhibition [4] [%]
COc1ccc(OC)c(-n2c3c(cc(-c4ccc(-c5ccccc5)cc4)c2=O)C(=O)CC(C)(C)C3)c1	> 38000	> 38000	–	–
CCc1cccc(CC)c1-n1c(C)c(C(=O)NC)cc(-c2nc(-c3ccc(Cl)cc3)cs2)c1=O	1500	–	87	64
CCc1cccc(CC)c1-n1c(C)c(C(=O)NCc2ccccc2)cc(-c2nc(-c3ccc(Cl)cc3)cs2)c1=O	> 38000	–	–	41
CCc1cccc(CC)c1-n1c(C)c(C(=O)NC(C)(C)C)cc(-c2nc(-c3ccc(Cl)cc3)cs2)c1=O	–	–	65	49
COc1ccc(OC)c(-n2c(C)ccc(-c3nc(-c4ccc(Cl)cc4)cs3)c2=O)c1	> 38000	> 38000	–	–
CCc1cccc(CC)c1-n1c(C=C(C)C)c(C(=O)N2CCNC(C#N)C2)cc(-c2nc(-c3ccc(Cl)cc3)cs2)c1=O (stereo unspecified)	160	56	–	–
CCc1cccc(CC)c1-n1c(C)c(C(=O)Nc2ccccc2)cc(-c2nc(-c3ccc(Cl)cc3)cs2)c1=O	–	–	40	69
CCc1cccc(CC)c1-n1c(C)c(C(=O)NC(C)C)cc(-c2nc(-c3ccc(Cl)cc3)cs2)c1=O	2800	–	47	54
COc1ccc(OC)c(-n2c3c(cc(-c4nc(-c5ccc(Cl)cc5)cs4)c2=O)C(=O)CNC3)c1	8000	–	75	32
CCc1cccc(CC)c1-n1c(C)c(C(=O)NC2CCCCC2)cc(-c2nc(-c3ccc(Cl)cc3)cs2)c1=O	> 38000	–	–	31
CCc1cccc(CC)c1-n1c(C)c(C(=O)O)cc(-c2nc(-c3ccc(Cl)cc3)cs2)c1=O	7200	–	102	72
COc1ccc(OC)c(-n2c(=O)c(-c3nc(-c4ccc(Cl)cc4)cs3)cc3c(O)cccc32)c1	–	–	35	36
COc1ccc(OC)c(-n2c3c(cc(-c4cc(-c5ccccc5)[nH]n4)c2=O)C(=O)CC(C)(C)C3)c1	–	–	47	41
COc1ccc(OC)c(-n2c3c(cc(-c4nc(-c5ccc(Cl)cc5)cs4)c2=O)C(=O)NCC3)c1	2300	–	84	65
COc1ccc(OC)c(-n2c3c(cc(-n4ccc(-c5ccccc5)n4)c2=O)C(=O)CC(C)(C)C3)c1	–	–	71	41
COc1ccc(OC)c(-n2c3c(cc(-c4ccn(-c5ccccc5)n4)c2=O)C(=O)CC(C)(C)C3)c1	3100	–	84	46
COc1ccc(OC)c(-n2c3c(cc(-n4cnc(-c5ccccc5)c4)c2=O)C(=O)CC(C)(C)C3)c1	–	–	59	44
COc1ccc(OC)c(-n2c3c(cc(-c4c[nH]c(-c5ccccc5)n4)c2=O)C(=O)CC(C)(C)C3)c1	2100	–	75	39
CCc1cccc(CC)c1-n1c(C)c(C(=O)N2CCCCC2)cc(-c2nc(-c3ccc(Cl)cc3)cs2)c1=O	–	–	51	65

Results, then the compound that gave them:

IC50 [1] [nM]	IC50 [2] [nM]	inhibition [3] [%]	inhibition [4] [%]	SMILES
–	–	71	61	CC1(C)CC(=O)c2cc(-c3nc(-c4ccc(Cl)cc4)cs3)c(=O)n(-c3ccccc3O)c2C1
–	–	31	33	CC(C)n1c2c(cc(-c3nc(-c4ccc(Cl)cc4)cs3)c1=O)C(=O)CC(C)(C)C2
260	–	100	90	CC1(C)CC(=O)c2cc(-c3nc(-c4ccc(Cl)cc4)cs3)c(=O)n(-c3sccc3C#N)c2C1
–	–	61	53	COc1ccccc1Cn1c2c(cc(-c3nc(-c4ccc(Cl)cc4)cs3)c1=O)C(=O)CC(C)(C)C2
270	–	96	87	CC1(C)CC(=O)c2cc(-c3nc(-c4ccc(Cl)cc4)cs3)c(=O)n(-c3ccccc3C(F)(F)F)c2C1
1200	–	77	59	COc1ccc(OC)c(-n2c3c(cc(-c4nc(-c5ccccc5)cs4)c2=O)C(=O)CC(C)(C)C3)c1
–	–	67	46	COc1ccc(OC)c(-n2c3c(cc(-c4cccc(-c5ccc(Cl)cc5)n4)c2=O)C(=O)CC(C)(C)C3)c1
–	–	74	64	Cc1ccccc1-n1c2c(cc(-c3nc(-c4ccc(Cl)cc4)cs3)c1=O)C(=O)CC(C)(C)C2
1300	–	83	70	CC1(C)CC(=O)c2cc(-c3nc(-c4ccc(Cl)cc4)cs3)c(=O)n(-c3ccccc3Cl)c2C1
14000	–	82	65	COc1c(C(=O)O)cccc1-n1c2c(cc(-c3nc(-c4ccc(Cl)cc4)cs3)c1=O)C(=O)CC(C)(C)C2
–	–	59	43	CNc1ccccc1-n1c2c(cc(-c3nc(-c4ccc(Cl)cc4)cs3)c1=O)C(=O)CC(C)(C)C2
3600	–	87	64	COc1ccc(OC)c(-n2c3c(cc(-c4nc(-c5ccc(Cl)cc5)cs4)c2=O)CCC(C)(C)C3)c1
–	–	47	38	CC1(C)CC(=O)c2cc(-c3nc(-c4ccc(Cl)cc4)cs3)c(=O)n(-c3ccccc3)c2C1
–	–	59	67	CC1(C)CC(=O)c2cc(-c3nc(-c4ccc(Cl)cc4)cs3)c(=O)n(-c3ccccc3-c3ccccc3)c2C1
–	–	38	29	COc1ccc(OC)c(-n2c3c(cc(-c4nc(-c5ccc(Cl)cc5)cs4)c2=O)C(=O)CC3)c1
–	–	64	35	COc1cccc(-n2c3c(cc(-c4nc(-c5ccc(Cl)cc5)cs4)c2=O)C(=O)CC(C)(C)C3)c1OC
–	–	57	42	CC1(C)CC(=O)c2cc(-c3nc(-c4ccc(Cl)cc4)cs3)c(=O)n(-c3ccccc3N)c2C1
–	–	56	57	CN(C)c1ccccc1-n1c2c(cc(-c3nc(-c4ccc(Cl)cc4)cs3)c1=O)C(=O)CC(C)(C)C2
–	–	65	49	CC1(C)CC(=O)c2cc(-c3nc(-c4ccc(Cl)cc4)cs3)c(=O)n(-c3ccccc3F)c2C1
2400	–	76	65	COc1ccccc1-n1c2c(cc(-c3nc(-c4ccc(Cl)cc4)cs3)c1=O)C(=O)CC(C)(C)C2
–	–	62	43	COc1ccc(OC)c(-n2c3c(cc(-c4nc(-c5ccc(Cl)cc5)cs4)c2=O)C(=O)CCC3)c1
2100	–	81	72	COc1cccc(C)c1-n1c2c(cc(-c3nc(-c4ccc(Cl)cc4)cs3)c1=O)C(=O)CC(C)(C)C2
–	–	30	60	CC1(C)CC(=O)c2cc(-c3nc(-c4ccc(Cl)cc4)cs3)c(=O)n(-c3ccccc3Oc3ccccc3)c2C1
–	–	62	61	CC(C)c1ccccc1-n1c2c(cc(-c3nc(-c4ccc(Cl)cc4)cs3)c1=O)C(=O)CC(C)(C)C2
–	–	47	39	CC1(C)CC(=O)c2cc(-c3nc(-c4ccc(Cl)cc4)cs3)c(=O)n(-c3ccccn3)c2C1
–	–	–	43	COc1cc(C(=O)O)ccc1-n1c2c(cc(-c3nc(-c4ccc(Cl)cc4)cs3)c1=O)C(=O)CC(C)(C)C2
–	–	38	61	CC1(C)CC(=O)c2cc(-c3nc(-c4ccc(Cl)cc4)cs3)c(=O)n(-c3ccccc3OCc3ccccc3)c2C1
